# Values of other authors, collected in PMC13167888 (Cancer Chemotherapy and Pharmacology, 2026).
# How the values were obtained:
# [1] = bosutinib
# BCRP = target: T1, BCRP (Homo sapiens, UniProt Q9UNQ0)
# T1 sequence (Q9UNQ0 1-655): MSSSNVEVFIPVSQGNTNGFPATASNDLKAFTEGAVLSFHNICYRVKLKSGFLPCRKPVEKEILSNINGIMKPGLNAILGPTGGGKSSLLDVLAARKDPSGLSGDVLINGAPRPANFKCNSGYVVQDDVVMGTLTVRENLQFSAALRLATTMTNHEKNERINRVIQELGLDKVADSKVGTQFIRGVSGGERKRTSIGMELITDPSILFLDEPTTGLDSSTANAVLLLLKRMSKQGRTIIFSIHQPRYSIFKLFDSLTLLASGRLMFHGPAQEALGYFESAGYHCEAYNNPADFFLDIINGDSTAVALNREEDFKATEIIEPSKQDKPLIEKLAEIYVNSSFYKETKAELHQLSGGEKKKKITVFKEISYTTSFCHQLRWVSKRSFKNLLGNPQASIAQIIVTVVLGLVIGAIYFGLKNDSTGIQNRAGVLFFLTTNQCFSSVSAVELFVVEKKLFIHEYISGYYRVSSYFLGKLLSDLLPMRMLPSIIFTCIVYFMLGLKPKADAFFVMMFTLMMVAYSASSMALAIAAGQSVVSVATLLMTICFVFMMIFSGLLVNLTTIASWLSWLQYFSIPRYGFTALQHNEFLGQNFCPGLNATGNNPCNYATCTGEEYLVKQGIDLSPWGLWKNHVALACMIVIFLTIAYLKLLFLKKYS
SMILES,Plasma protein binding [1],IC50 (BCRP)
COc1cc(Nc2c(C#N)cnc3cc(OCCCN4CCN(C)CC4)c(OC)cc23)c(Cl)cc1Cl [bosutinib],94% [37],
CC(C)/N=c1\cc2n(-c3ccc(Cl)cc3)c3ccccc3nc-2cc1Nc1ccc(Cl)cc1 [clofazimine],,3.2 µM
